Test results: PubChem BioAssay (NCI)
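Grown in 96-well plates, cells were treated for 48 hours with each compound at five concentrations. Insufficient inhibition: endpoint recorded as highest concentration tested. GI50 = concentration required for 50% inhibition of growth. TGI: concentration producing complete growth inhibition.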

Tests used:
Experiment in all cases: NCI anticancer screen, dose series, 48 h
[1] = tested on: HOP-62 NSCLC
[2] = tested on: UO-31 renal
[3] = tested on: OVCAR-4 ovarian
[4] = tested on: NCI/ADR-RES ovarian
[5] = tested on: MOLT-4 leukemia
[6] = tested on: IGROV1 ovarian
[7] = tested on: U251 CNS
[8] = tested on: NCI-H522 lung
[9] = tested on: A549 NSCLC
[10] = tested on: SK-MEL-28 melanoma
[11] = tested on: HCT-15 colon
[12] = tested on: M14 melanoma
[13] = tested on: RPMI-8226 leukemia
[14] = tested on: HCC-2998 colon
[15] = tested on: MALME-3M melanoma
[16] = tested on: OVCAR-5 ovarian
[17] = tested on: NCI-H460 lung
[18] = tested on: 786-0 renal
[19] = tested on: LOX IMVI melanoma
[20] = tested on: SNB-19 CNS
[21] = tested on: KM12 colon
[22] = tested on: SK-MEL-5 melanoma
[23] = tested on: HCT-116 colon
[24] = tested on: SF-539 CNS
[25] = tested on: NCI-H23 lung
[26] = tested on: SF-268 CNS
[27] = tested on: PC-3 prostate
[28] = tested on: K-562 leukemia
[29] = tested on: BT-549 breast
[30] = tested on: HOP-92 NSCLC
[31] = tested on: RXF 393 renal
[32] = tested on: MDA-MB-435
[33] = tested on: CAKI-1 renal
[34] = tested on: NCI-H226 lung
[35] = tested on: HS 578T breast
[36] = tested on: UACC-62 melanoma
[37] = tested on: COLO 205 colon
[38] = tested on: SNB-75 CNS
[39] = tested on: TK-10 renal
[40] = tested on: SF-295 CNS
[41] = tested on: HT29 colon
[42] = tested on: MCF7 breast
[43] = tested on: MDA-MB-231 breast
[44] = tested on: DU-145 prostate
[45] = tested on: CCRF-CEM leukemia
[46] = tested on: OVCAR-8 ovarian
[47] = tested on: SN12C renal
[48] = tested on: SK-OV-3 ovarian
[49] = tested on: SR leukemia
[50] = tested on: ACHN renal
[51] = tested on: A498 renal
[52] = tested on: SK-MEL-2 melanoma
[53] = tested on: UACC-257 melanoma
[54] = tested on: SW-620 colon
[55] = tested on: T-47D breast
[56] = tested on: HL-60(TB) leukemia

Compound: O=C(Nc1ccc(OS(=O)(=O)c2ccccc2)cc1)C12CC3CC(CC(C3)C1)C2
- GI50 [1]: > 100 µM
- TGI [1]: > 100 µM
- GI50 [2]: 18.7 µM
- TGI [2]: > 100 µM
- GI50 [3]: 8.38 µM
- TGI [3]: > 100 µM
- GI50 [4]: 5.75 µM
- TGI [4]: > 100 µM
- GI50 [5]: 5.05 µM
- TGI [5]: > 100 µM
- GI50 [6]: > 100 µM
- TGI [6]: > 100 µM
- GI50 [7]: 4.81 µM
- TGI [7]: > 100 µM
- GI50 [8]: 4.36 µM
- TGI [8]: > 100 µM
- GI50 [9]: 6.9 µM
- TGI [9]: > 100 µM
- GI50 [10]: > 100 µM
- TGI [10]: > 100 µM
- GI50 [11]: 0.997 µM
- TGI [11]: > 100 µM
- GI50 [12]: 7.2 µM
- TGI [12]: > 100 µM
- GI50 [13]: 2.15 µM
- TGI [13]: > 100 µM
- GI50 [14]: 5.48 µM
- TGI [14]: > 100 µM
- GI50 [15]: > 100 µM
- TGI [15]: > 100 µM
- GI50 [16]: > 100 µM
- TGI [16]: > 100 µM
- GI50 [17]: 6.1 µM
- TGI [17]: > 100 µM
- GI50 [18]: 3.8 µM
- TGI [18]: > 100 µM
- GI50 [19]: 4.38 µM
- TGI [19]: > 100 µM
- GI50 [20]: > 100 µM
- TGI [20]: > 100 µM
- GI50 [21]: 2.1 µM
- TGI [21]: > 100 µM
- GI50 [22]: 3.12 µM
- TGI [22]: > 100 µM
- GI50 [23]: 2.5 µM
- TGI [23]: > 100 µM
- GI50 [24]: 0.965 µM
- TGI [24]: > 100 µM
- GI50 [25]: 6.68 µM
- TGI [25]: > 100 µM
- GI50 [26]: > 100 µM
- TGI [26]: > 100 µM
- GI50 [27]: 2.9 µM
- TGI [27]: > 100 µM
- GI50 [28]: 0.576 µM
- TGI [28]: > 100 µM
- GI50 [29]: 3.24 µM
- TGI [29]: > 100 µM
- GI50 [30]: 1.87 µM
- TGI [30]: > 100 µM
- GI50 [31]: 5.12 µM
- TGI [31]: > 100 µM
- GI50 [32]: > 100 µM
- TGI [32]: > 100 µM
- GI50 [33]: 7.08 µM
- TGI [33]: > 100 µM
- GI50 [34]: 27.7 µM
- TGI [34]: > 100 µM
- GI50 [35]: 7.29 µM
- TGI [35]: > 100 µM
- GI50 [36]: 6.47 µM
- TGI [36]: > 100 µM
- GI50 [37]: 0.873 µM
- TGI [37]: > 100 µM
- GI50 [38]: 7.16 µM
- TGI [38]: > 100 µM
- GI50 [39]: > 100 µM
- TGI [39]: > 100 µM
- GI50 [40]: 8.27 µM
- TGI [40]: > 100 µM
- GI50 [41]: 0.403 µM
- TGI [41]: 3.69 µM
- GI50 [42]: 3.26 µM
- TGI [42]: > 100 µM
- GI50 [43]: 3.79 µM
- TGI [43]: > 100 µM
- GI50 [44]: > 100 µM
- TGI [44]: > 100 µM
- GI50 [45]: 3.73 µM
- TGI [45]: > 100 µM
- GI50 [46]: > 100 µM
- TGI [46]: > 100 µM
- GI50 [47]: > 100 µM
- TGI [47]: > 100 µM
- GI50 [48]: > 100 µM
- TGI [48]: > 100 µM
- GI50 [49]: 3.6 µM
- TGI [49]: > 100 µM
- GI50 [50]: > 100 µM
- TGI [50]: > 100 µM
- GI50 [51]: 2.04 µM
- TGI [51]: 48.7 µM
- GI50 [52]: > 100 µM
- TGI [52]: > 100 µM
- GI50 [53]: 13.5 µM
- TGI [53]: > 100 µM
- GI50 [54]: 1.97 µM
- TGI [54]: > 100 µM
- GI50 [55]: 3.57 µM
- TGI [55]: > 100 µM
- GI50 [56]: 2.68 µM
- TGI [56]: > 100 µM
